Test system: 12 single or co-culture in vitro tissue models of primary cells
Assay: Culture/co-culture cell model panel, extracellular biomarkers (DiscoveRx); on CCL2/MCP-1: reference of the scale not given here; on CD38: reference of the scale not given here; on CD40: reference of the scale not given here; on CD69: reference of the scale not given here; on CXCL8/IL-8: reference of the scale not given here; on CXCL9/MIG: reference of the scale not given here; on IL-1alpha: reference of the scale not given here; on PBMC Cytotoxicity: reference of the scale not given here; on SRB: reference of the scale not given here
Type: cell-based, human

## Cc1n[nH]c2ncc(C(=O)N3CCC[C@H]3c3ccc(Cl)cc3)cc12 [CMPD4]
/TH2, 3.33E3 nM
  CCL26/Eotaxin-3: -0.151
  CD38: -0.023
  CD40: -0.167
  CD62E/E-Selectin: 0.088
  CD62P/P-selectin: -0.076
  CD69: 0.020
  CD87/uPAR: -0.191
  CD106/VCAM-1: 0.009
  CXCL8/IL-8: -0.082
  CXCL9/MIG: -0.033
  Collagen IV: 0.00458
  PBMC Cytotoxicity: -0.051
  SRB: -0.131
  sIL-17A: 0.034
  sIL-17F: 0.022
/TH2, 3.70E2 nM
  CCL2/MCP-1: -0.111
  CCL26/Eotaxin-3: -0.170
  CD38: 0.020
  CD40: -0.169
  CD62E/E-Selectin: 0.039
  CD62P/P-selectin: -0.043
  CD69: 0.055
  CD87/uPAR: -0.203
  CD106/VCAM-1: 0.023
  CXCL8/IL-8: -0.040
  CXCL9/MIG: -0.019
  Collagen IV: -0.00656
  PBMC Cytotoxicity: 0.007
  SRB: -0.083
  sIL-17A: 0.040
  sIL-17F: 0.00074
/TH2, 4.12E1 nM
  CCL2/MCP-1: -0.080
  CCL26/Eotaxin-3: -0.157
  CD38: 0.006
  CD40: -0.170
  CD62E/E-Selectin: 0.069
  CD62P/P-selectin: -0.051
  CD69: 0.028
  CD87/uPAR: -0.181
  CD106/VCAM-1: 0.009
  CXCL8/IL-8: -0.049
  CXCL9/MIG: -0.018
  Collagen IV: -0.002
  PBMC Cytotoxicity: -0.057
  SRB: -0.051
  sIL-17A: 0.042
  sIL-17F: 0.053
/TH2, 4.57E0 nM
  CCL2/MCP-1: -0.000419
  CCL26/Eotaxin-3: -0.103
  CD38: -0.00453
  CD40: -0.110
  CD62E/E-Selectin: 0.029
  CD62P/P-selectin: 0.013
  CD69: 0.026
  CD87/uPAR: -0.100
  CD106/VCAM-1: 0.017
  CXCL8/IL-8: 0.027
  CXCL9/MIG: 0.021
  Collagen IV: 0.011
  PBMC Cytotoxicity: -0.009
  SRB: -0.014
  sIL-17A: 0.056
  sIL-17F: 0.044
BENo, 1.00E4 nM
  CCL26/Eotaxin-3: 0.048
  CD54/ICAM-1: -0.115
  CD87/uPAR: -0.014
  CXCL8/IL-8: -0.033
  CXCL9/MIG: 0.082
  CXCL10/IP-10: -0.00135
  CXCL11/I-TAC: -0.038
  EGFR: 0.006
  HLA-DR: -0.032
  IL-1alpha: -0.034
  Keratin 8/18: -0.032
  MMP-1: 0.000562
  MMP-9: -0.051
  PAI-I: -0.097
  SRB: -0.020
  tPA: -0.115
  uPA: -0.041
BENo, 1.11E3 nM
  CCL26/Eotaxin-3: -0.033
  CD54/ICAM-1: -0.081
  CD87/uPAR: -0.049
  CXCL8/IL-8: -0.031
  CXCL9/MIG: -0.00357
  CXCL10/IP-10: -0.058
  CXCL11/I-TAC: -0.048
  EGFR: 0.007
  HLA-DR: 0.036
  IL-1alpha: -0.027
  Keratin 8/18: 3.05e-5
  MMP-1: -0.038
  MMP-9: -0.005
  PAI-I: -0.107
  SRB: 0.008
  tPA: -0.047
  uPA: -0.007
BENo, 1.23E2 nM
  CCL26/Eotaxin-3: -0.013
  CD54/ICAM-1: -0.092
  CD87/uPAR: -0.00225
  CXCL8/IL-8: -0.028
  CXCL9/MIG: -0.018
  CXCL10/IP-10: -0.010
  CXCL11/I-TAC: -0.021
  EGFR: 0.013
  HLA-DR: 0.00213
  IL-1alpha: 0.008
  Keratin 8/18: -0.021
  MMP-1: -0.035
  MMP-9: -0.086
  PAI-I: -0.061
  SRB: 0.015
  tPA: -0.029
  uPA: -0.020
BENo, 1.37E1 nM
  CCL26/Eotaxin-3: 0.037
  CD54/ICAM-1: -0.062
  CD87/uPAR: 0.021
  CXCL8/IL-8: -0.025
  CXCL9/MIG: -0.110
  CXCL10/IP-10: -0.013
  CXCL11/I-TAC: -0.064
  EGFR: 0.011
  HLA-DR: 0.054
  IL-1alpha: -0.002
  Keratin 8/18: -0.018
  MMP-1: -0.037
  MMP-9: -0.035
  PAI-I: -0.045
  SRB: 0.023
  tPA: 0.009
  uPA: -0.014
BENo, 3.33E3 nM
  CCL26/Eotaxin-3: -0.026
  CD54/ICAM-1: -0.069
  CD87/uPAR: -0.045
  CXCL8/IL-8: -0.035
  CXCL9/MIG: -0.00357
  CXCL10/IP-10: -0.006
  CXCL11/I-TAC: -0.044
  EGFR: 0.00248
  HLA-DR: 0.016
  IL-1alpha: -0.032
  Keratin 8/18: -0.033
  MMP-1: -0.028
  MMP-9: -0.009
  PAI-I: -0.091
  SRB: -0.011
  tPA: -0.052
  uPA: -0.052
BENo, 3.70E2 nM
  CCL26/Eotaxin-3: -0.028
  CD54/ICAM-1: -0.092
  CD87/uPAR: -0.025
  CXCL8/IL-8: -0.027
  CXCL9/MIG: -0.00262
  CXCL10/IP-10: -0.017
  CXCL11/I-TAC: -0.036
  EGFR: -0.014
  HLA-DR: -0.009
  IL-1alpha: -0.009
  Keratin 8/18: -0.013
  MMP-1: -0.038
  MMP-9: -0.012
  PAI-I: -0.072
  SRB: 0.008
